The text below walks through data of patent US5245035A, “Heterocyclic boron compounds as intermediates for angiotensin II antagonists” (Imperial Chemical Industries PLC, priority 1991, dated 1993).

Structures can show the parent of a compound that is named as a salt.

Assay [1] deals with angiotensin II-induced pressor responses. Description: Test C: in vivo antagonism of angiotensin II-induced pressor responses in terminally-anaesthetised or conscious rats. The settings on record: Rattus norvegicus, iv, i.v. administration. An excerpt:
The antagonism of one or more of the physiological actions of AII and, in particular, the antagonism of the interaction of AII with the receptors which mediate its effects on a target tissue, may be assessed using one or more of the following, routine laboratory procedures: This in vivo test involves using terminally-anaesthetised or conscious rats in which an arterial catheter has been implanted under anaesthesia for the measurement of changes in blood pressure. The AII antagonistic effects of the test compound following oral or parenteral administration, are assessed against angiotensin II-induced pressor responses. To ensure that the effect is specific, the effect of the test compound on vasopressin-induced pressor responses may also be determined in the same preparation.

Assay [2] has as its target T1, AII-induced contractions of isolated rabbit aorta (Oryctolagus cuniculus, UniProt P34976).
T1 construct: isolated rabbit aorta, maintained in a physiological salt solution; from tissue; host or cells: isolated rabbit aorta
T1 sequence (P34976 1-359): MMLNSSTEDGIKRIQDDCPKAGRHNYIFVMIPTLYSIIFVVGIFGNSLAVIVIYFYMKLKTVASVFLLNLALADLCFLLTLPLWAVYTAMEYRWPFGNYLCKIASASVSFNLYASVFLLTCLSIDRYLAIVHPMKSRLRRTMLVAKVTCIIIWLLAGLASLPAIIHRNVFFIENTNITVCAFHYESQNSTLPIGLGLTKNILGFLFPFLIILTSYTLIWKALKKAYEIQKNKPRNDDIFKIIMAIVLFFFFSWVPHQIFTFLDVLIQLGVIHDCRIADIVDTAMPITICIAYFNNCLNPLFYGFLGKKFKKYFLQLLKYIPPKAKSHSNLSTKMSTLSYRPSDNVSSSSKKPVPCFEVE
Description: Test B: in vitro antagonism of AII-induced contractions of isolated rabbit aorta. It is filed as cell-based. To be noted: 37° C., read-out: average pA2 (converted). The protocol: The antagonism of one or more of the physiological actions of AII and, in particular, the antagonism of the interaction of AII with the receptors which mediate its effects on a target tissue, may be assessed using one or more of the following, routine laboratory procedures: This in vitro test involves the measurement of the antagonistic effects of the test compound against […] contractions of isolated rabbit aorta, maintained in a physiological salt solution at 37° C. In order to ensure that the effect of the compound is specific to antagonism of AII, the effect of the test compound on noradrenaline-induced contractions may also be determined in the same preparation.

On to `Cc1cc(OCc2ccc(-c3ccccc3-c3nnn[nH]3)cc2)c2ccccc2n1.Cl` [2-methyl-4-[(2'-(1H-tetrazol-5-yl)biphenyl-4-yl)methoxy]quinoline hydrochloride], for which the 50% effective dose (ED50) (usually the dose at which the effect has come halfway, by size or by number of responders) in assay [1] was found to be 0.5 mg/kg. For the same compound, in assay [2], the Kb is 1.12 nM.
In assay [1], `Cc1cc(OCc2ccc(-c3ccccc3-c3nnn[nH]3)cc2)c2c(n1)CCCC2` [2-methyl-5,6,7,8-tetrahydro-4-[(2'-(1H-tetrazol-5-yl)methoxy]quinoline hydrochloride] displayed an ED50 of 0.28 mg/kg.
